Experimental data published in patent US9072734B2, “Quaternary ammonium salt compounds” (Teijin Pharma Limited, priority 2009, dated 2015).
pEC50, pIC50: −log10 of the molar value. Counter-ions that a name gives are not always drawn.

What was measured:
[1] = molecular target: T1, human M3 muscarinic receptor (Homo sapiens, UniProt P20309); assay: Inhibitory effect on methacholine-induced calcium influx, FLIPR assay, CHO-K1 cells stably expressing the human M3 muscarinic receptor; type: cell-based; conditions: inhibition of calcium influx induced by methacholine
T1 construct: expressed in transfected cells; host or cells: CHO-K1
T1 sequence (P20309 whole entry): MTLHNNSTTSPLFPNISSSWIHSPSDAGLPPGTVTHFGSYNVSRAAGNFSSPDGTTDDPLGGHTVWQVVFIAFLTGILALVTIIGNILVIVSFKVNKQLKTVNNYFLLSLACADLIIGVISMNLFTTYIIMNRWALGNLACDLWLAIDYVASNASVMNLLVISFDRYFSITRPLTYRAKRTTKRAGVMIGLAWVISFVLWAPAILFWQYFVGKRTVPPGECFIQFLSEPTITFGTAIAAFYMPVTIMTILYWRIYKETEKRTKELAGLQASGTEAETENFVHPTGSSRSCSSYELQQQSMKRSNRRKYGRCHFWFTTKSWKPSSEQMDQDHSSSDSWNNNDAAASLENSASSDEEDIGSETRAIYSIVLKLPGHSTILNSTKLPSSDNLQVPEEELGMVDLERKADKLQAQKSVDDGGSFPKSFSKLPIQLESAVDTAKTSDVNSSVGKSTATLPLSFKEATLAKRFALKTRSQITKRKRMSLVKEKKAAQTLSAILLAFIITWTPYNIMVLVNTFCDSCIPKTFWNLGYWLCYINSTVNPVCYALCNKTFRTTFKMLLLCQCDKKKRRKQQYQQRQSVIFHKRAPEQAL
Source text: Muscarinic receptor subtypes (M1, M3 and M5 receptors), which couple to Gq proteins, activate the phospholipase C (PLC) pathway upon agonist binding to the receptor. As a result, the activated PLC hydrolyzes phosphatidyl inositol diphosphate (PIP2) to diacyl glycerol (DAG) and […] (IP3), which in turn generates calcium release from intracellular stores, i.e., endoplasmic and sarcoplasmic reticula. By utilizing FLIPR (Molecular Devices, Inc.) assay in which a calcium sensitive dye (Component A) is used that fluoresces when free calcium binds, the increase in intracellular calcium is measured on the basis of the change in the fluorescence intensity.
Methacholine was added to CHO-K1 cells stably expressing the human M3 muscarinic receptor to induce calcium influx and evaluate the inhibitory effect of test compounds. In the experiment, a FLIPR Calcium assay kit (Molecular Devices, Inc.) was used.
CHO-K1 cells stably expressing the human M3 muscarinic receptor suspended in Ham's F-12 media (Invitrogen, Co.) containing 10% fetal bovine serum (FBS) were seeded into 96-well FLIPR plates at a volume of 100 μL/well. Next day, 60 μL/well of Non-wash-dye solution (Hank's buffered salt solution, HBSS, containing 20 mM HEPES and 6.5 mM probenecid) was added to the cells, which were then incubated for an hour at 37° C. in the presence of 5% carbon dioxide. 20 μL of 10 concentrations of test compound solutions (HBSS containing 1% DMSO, 20 mM HEPES, 2.5 mM probenecid and 0.05% bovine serum albumin, BSA) prepared at concentrations in a range of 0.01-1000 nM with 2-fold serial dilution) were added, followed by incubation for 180 seconds. Then, 20 μL of 30 nM methacholine solution (HBSS containing 20 mM HEPES, 2.5 mM probenecid and 0.05% bovine serum albumin, BSA) was added, and fluorescence intensity was traced by the intracellular calcium influx measuring device FLIPR 96 (Molecular Devices, Inc.) for 170 seconds. The difference between the lowest and the highest values of the fluorescence intensity (FI) over the period of the measurement was used as a measured value. The percentages of inhibition by the test compounds were calculated according to the following formula from the measured value of the methacholin-added and test compound non-added sample (FIpositive), the measured value of the methacholin non-added and test compound non-added sample (FInegative), and the measured value of the methacholin-added and test compound-added sample (FItest). (%) Percentage of inhibition by test compound=[(1−(FItest−FInegative)/(FIpositive−FInegative)]×100
The 50% inhibitory concentrations (IC50 values) of test compounds were analyzed by a four-parameter logistic model using XLfit4 (IDBS, Ltd.) for the percentage of the inhibition by different concentrations of test compounds.

[2] = molecular target: T2, human β2 adrenergic receptor (Homo sapiens, UniProt P07550); assay: Whole-cell cAMP Flashplate assay using CHO-K1 cells stably expressing human β2 adrenergic receptor; type: cell-based; conditions: cAMP production
T2 construct: expressed in transfected cells; host or cells: CHO-K1
T2 sequence (P07550 whole entry): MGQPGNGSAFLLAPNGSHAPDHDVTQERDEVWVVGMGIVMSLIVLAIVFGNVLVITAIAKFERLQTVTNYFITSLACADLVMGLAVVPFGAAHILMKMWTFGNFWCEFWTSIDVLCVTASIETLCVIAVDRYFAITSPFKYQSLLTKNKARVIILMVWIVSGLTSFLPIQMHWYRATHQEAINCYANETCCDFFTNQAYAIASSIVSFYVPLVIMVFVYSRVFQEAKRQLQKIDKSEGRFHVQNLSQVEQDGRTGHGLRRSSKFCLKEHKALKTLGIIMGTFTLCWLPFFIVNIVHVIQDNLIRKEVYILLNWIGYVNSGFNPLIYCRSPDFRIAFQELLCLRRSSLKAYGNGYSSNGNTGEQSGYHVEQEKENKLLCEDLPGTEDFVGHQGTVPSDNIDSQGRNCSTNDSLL

SMILES | pIC50 [1] | pEC50 [2]
COc1cc(CNC[C@H](O)c2ccc(O)c3[nH]c(=O)ccc23)ccc1NC(=O)CCc1ccc(-c2ccccc2)c(NC(=O)OC2CC[N+](C)(C)CC2)c1 [Example 10, 4-({[5-(2-{[4-({[(2R)-2-hydroxy-2-(8-hydroxy-2-oxo-1,2-dihydroquinolin-5-yl)ethyl]amino}methyl)-2-methoxyphenyl]carbamoyl}ethyl)-2-phenylphenyl]carbamoyl}oxy)-1,1-dimethylpiperidin-1-ium trifluoroacetate] | 7.98 | 8.41
C[N+]1(C)CCC(OC(=O)Nc2cc(CCNC(=O)c3ccc(CNC[C@H](O)c4ccc(O)c5[nH]c(=O)ccc45)cc3)ccc2-c2ccccc2)CC1 [Example 80, 4-({[5-(2-{[4-({[(2R)-2-hydroxy-2-(8-hydroxy-2-oxo-1,2-dihydroquinolin-5-yl)ethyl]amino}methyl)phenyl]formamide}ethyl)-2-phenylphenyl]carbamoyl}oxy)-1,1-dimethylpiperidin-1-ium trifluoro acetate] | 7.52 | 8.62
C[N+]1(C)[C@@H]2CC(OC(=O)Nc3ccc(CCCC(=O)Nc4ccc(CNC[C@H](O)c5ccc(O)c6[nH]c(=O)ccc56)cc4)cc3-c3ccccc3)C[C@H]1[C@@H]1O[C@@H]12 (stereo partly drawn) [Example 53, (1R,2R,4S,5S,7S)-7-({[4-(3-{[4-({[(2R)-2-hydroxy-2-(8-hydroxy-2-oxo-1,2-dihydroquinolin-5-yl)ethyl]amino}methyl)phenyl]carbamoyl}propyl)-2-phenylphenyl]carbamoyl}oxy)-9,9-dimethyl-3-oxa-9-azatricyclo[3.3.1.0^2,4]nonan-9-ium trifluoroacetate] | 7.27 | 9.22
C[N+]1(C)[C@@H]2C[C@@H](OC(=O)Nc3ccc(CCCC(=O)Nc4ccc(CNC[C@H](O)c5ccc(O)c6[nH]c(=O)ccc56)cc4Cl)cc3-c3ccccc3)C[C@H]1[C@@H]1O[C@@H]12 [Example 71, (1R,2R,4S,5S,7S)-7-({[4-(3-{[2-chloro-4-({[(2R)-2-hydroxy-2-(8-hydroxy-2-oxo-1,2-dihydroquinolin-5-yl)ethyl]amino}methyl)phenyl]carbamoyl}propyl)-2-phenylphenyl]carbamoyl}oxy)-9,9-dimethyl-3-oxa-9-azatricyclo[3.3.1.0^2,4]nonan-9-ium trifluoroacetate] | 7.41 | 9.70
C[N+]1(C)[C@@H]2C[C@@H](OC(=O)Nc3cc(CCCC(=O)Nc4ccc(CNC[C@H](O)c5ccc(O)c6[nH]c(=O)ccc56)cc4)ccc3-c3ccccc3)C[C@H]1[C@@H]1O[C@@H]12 [Example 33, (1R,2R,4S,5S,7S)-7-({[5-(3-{[4-({[(2R)-2-hydroxy-2-(8-hydroxy-2-oxo-1,2-dihydroquinolin-5-yl)ethyl]amino}methyl)phenyl]carbamoyl}propyl)-2-phenylphenyl]carbamoyl}oxy)-9,9-dimethyl-3-oxa-9-azatricyclo[3.3.1.0^2,4]nonan-9-ium trifluoroacetate] | 7.66 | 8.34
Cc1cc(CNC[C@H](O)c2ccc(O)c3[nH]c(=O)ccc23)ccc1NC(=O)CCCc1ccc(-c2ccccc2)c(NC(=O)O[C@@H]2C[C@@H]3[C@H]4O[C@H]4[C@H](C2)[N+]3(C)C)c1 [Example 39, (1R,2R,4S,5S,7S)-7-({[5-(3-{[4-({[(2R)-2-hydroxy-2-(8-hydroxy-2-oxo-1,2-dihydroquinolin-5-yl)ethyl]amino}methyl)-2-methylphenyl]carbamoyl}propyl)-2-phenylphenyl]carbamoyl}oxy)-9,9-dimethyl-3-oxa-9-azatricyclo[3.3.1.0^2,4]nonan-9-ium trifluoroacetate] | 7.80 | 8.40
C[N+]1(C)CCC(OC(=O)Nc2cc(CCCC(=O)Nc3ccc(CNC[C@H](O)c4ccc(O)c5[nH]c(=O)ccc45)c(Cl)c3)ccc2-c2ccccc2)CC1 [Example 29, 4-({[5-(3-{[3-chloro-4-({[(2R)-2-hydroxy-2-(8-hydroxy-2-oxo-1,2-dihydroquinolin-5-yl)ethyl]amino}methyl)phenyl]carbamoyl}propyl)-2-phenylphenyl]carbamoyl}oxy)-1,1-dimethylpiperidin-1-ium trifluoroacetate] | 7.87 | 8.32
C[N+]1(C)CCC(OC(=O)Nc2cc(CCC(=O)Nc3cc(F)c(CNC[C@H](O)c4ccc(O)c5[nH]c(=O)ccc45)cc3F)ccc2-c2ccccc2)CC1 [Example 5, 4-({[5-(2-{[2,5-difluoro-4-({[(2R)-2-hydroxy-2-(8-hydroxy-2-oxo-1,2-dihydroquinolin-5-yl)ethyl]amino}methyl)phenyl]carbamoyl}ethyl)-2-phenylphenyl]carbamoyl}oxy)-1,1-dimethylpiperidin-1-ium trifluoroacetate] | 7.72 | 8.09
C[N+]1(C)CCC(OC(=O)Nc2cc(CCCC(=O)Nc3ccc(CNC[C@H](O)c4ccc(O)c5[nH]c(=O)ccc45)cc3)ccc2-c2ccccc2)CC1 [Example 32, 4-({[5-(3-{[4-({[(2R)-2-hydroxy-2-(8-hydroxy-2-oxo-1,2-dihydroquinolin-5-yl)ethyl]amino}methyl)phenyl]carbamoyl}propyl)-2-phenylphenyl]carbamoyl}oxy)-1,1-dimethylpiperidin-1-ium trifluoroacetate] | 7.79 | 8.08
C[N+]1(C)[C@@H]2CC(OC(=O)Nc3cc(CCC(=O)Nc4ccc(CNC[C@H](O)c5ccc(O)c6[nH]c(=O)ccc56)c(Cl)c4)ccc3-c3ccccc3)C[C@H]1[C@@H]1O[C@@H]12 (stereo partly drawn) [Example 45, (1R,2R,4S,5S,7S)-7-({[5-(2-{[3-chloro-4-({[(2R)-2-hydroxy-2-(8-hydroxy-2-oxo-1,2-dihydroquinolin-5-yl)ethyl]amino}methyl)phenyl]carbamoyl}ethyl)-2-phenylphenyl]carbamoyl}oxy)-9,9-dimethyl-3-oxa-9-azatricyclo[3.3.1.0^2,4]nonan-9-ium trifluoroacetate] | 7.58 | 8.39
C[N+]1(C)CCC(OC(=O)Nc2cc(CCC(=O)Nc3ccc(CNC[C@H](O)c4ccc(O)c5[nH]c(=O)ccc45)cn3)ccc2-c2ccccc2)CC1 [Example 17, 4-({[5-(2-{[5-({[(2R)-2-hydroxy-2-(8-hydroxy-2-oxo-1,2-dihydroquinolin-5-yl)ethyl]amino}methyl)pyridin-2-yl]carbamoyl}ethyl)-2-phenylphenyl]carbamoyl}oxy)-1,1-dimethylpiperidin-1-ium trifluoroacetate] | 7.94 | 8.23
COc1cc(NC(=O)CCCc2ccc(NC(=O)O[C@@H]3C[C@@H]4[C@H]5O[C@H]5[C@H](C3)[N+]4(C)C)c(-c3ccccc3)c2)c(Br)cc1CNC[C@H](O)c1ccc(O)c2[nH]c(=O)ccc12 [Example 70, (1R,2R,4S,5S,7S)-7-({[4-(3-{[2-bromo-4-({[(2R)-2-hydroxy-2-(8-hydroxy-2-oxo-1,2-dihydroquinolin-5-yl)ethyl]amino}methyl)-5-methoxyphenyl]carbamoyl}propyl)-2-phenylphenyl]carbamoyl}oxy)-9,9-dimethyl-3-oxa-9-azatricyclo[3.3.1.0^2,4]nonan-9-ium trifluoroacetate] | 7.22 | 9.70
CCOc1cc(NC(=O)CCCc2ccc(-c3ccccc3)c(NC(=O)OC3CC[N+](C)(C)CC3)c2)ccc1CNC[C@H](O)c1ccc(O)c2[nH]c(=O)ccc12 [Example 27, 4-({[5-(3-{[5-ethoxy-4-({[(2R)-2-hydroxy-2-(8-hydroxy-2-oxo-1,2-dihydroquinolin-5-yl)ethyl]amino}methyl)phenyl]carbamoyl}propyl)-2-phenylphenyl]carbamoyl}oxy)-1,1-dimethylpiperidin-1-ium trifluoroacetate] | 7.79 | 8.82
CCOc1cc(NC(=O)CCCc2ccc(-c3ccccc3)c(NC(=O)OC3CC[N+](C)(C)CC3)c2)c(Cl)cc1CNC[C@H](O)c1ccc(O)c2[nH]c(=O)ccc12 [Example 26, 4-({[5-(3-{[2-chloro-5-ethoxy-4-({[(2R)-2-hydroxy-2-(8-hydroxy-2-oxo-1,2-dihydroquinolin-5-yl)ethyl]amino}methyl)phenyl]carbamoyl}propyl)-2-phenylphenyl]carbamoyl}oxy)-1,1-dimethylpiperidin-1-ium trifluoroacetate] | 7.63 | 9.05
